Results as given in US3969522A, “Diaryl-pyridyl-imidazole methanes for treating mycotic infections” (Bayer Aktiengesellschaft, priority 1972, dated 1976).
Converted amounts (≈) assume the structure as drawn. Structures can show the parent of a compound that is named as a salt.

Experiments:
Type in all cases: cell-based
Penicillium commune = experiment: series dilution test in vitro, Penicillium commune; details: 28° C, 24 to 96 hours; for MIC: read-out: Minimum Inhibitory Concentration
Experimental: (§1) A. Determination of the antimycotic action spectrum in vitro by means of the series dilution test
(§2) Sabourauds' milieu d'epreuve is used as the nutrient substrate for dermatophytes and Aspergilli, and meat-broth-glucose-bouillon is used as the nutrient substrate for blastomyces. The incubation temperature is 28° C and the incubation time is 24 to 96 hours.

Aspergillis niger = experiment: series dilution test in vitro, Aspergillus niger; details: Sabourauds' milieu d'epreuve, 28° C, 24 to 96 hours; for MIC: Aspergillus niger, read-out: Minimum Inhibitory Concentration
Experimental: as §1, §2

[1] = system: Trichophyton mentagrophytes; experiment: series dilution test in vitro, Trichophyton mentagrophytes; details: Sabourauds' milieu d'epreuve, 28° C, 24 to 96 hours; for MIC: read-out: Minimum Inhibitory Concentration
Experimental: as §1, §2

Candida albicans = experiment: series dilution test in vitro, Candida albicans; details: 28° C, 24 to 96 hours; for MIC: read-out: Minimum Inhibitory Concentration
Experimental: as §1, §2

Row | SMILES | Minimum Inhibitory Concentration (Penicillium commune) [µg/mL] | Minimum Inhibitory Concentration (Aspergillis niger) [µg/mL] | Minimum Inhibitory Concentration [1] [µg/mL] | Minimum Inhibitory Concentration (Candida albicans) [µg/mL] | MIC (Penicillium commune) [µg/mL] | MIC (Aspergillis niger) [µg/mL] | MIC [1] [µg/mL] | MIC (Candida albicans) [µg/mL]
1 | Cc1ccc(C(c2ccccc2)(c2ccncc2)n2ccnc2)cc1C (stereo not drawn) [Example 10, 1-(3,4-dimethylphenyl-phenyl-4-pyridyl)-methyl-imidazole 1,5-naphthalenedisulphonate] | 4 | 4 | 10 | 1 |  |  |  | 
2 | Cc1ccc(C(c2ccccc2)(c2ccncc2)n2ccnc2)c(C)c1 (stereo not drawn) [Example 4, 1-(2,4-dimethylphenyl-phenyl-4-pyridyl)-methyl-imidazole] |  |  |  |  | 10 (≈ 29.5 µM) | 4 (≈ 11.8 µM) | 0.5 (≈ 1.47 µM) | 4 (≈ 11.8 µM)
3 | Cc1ccc(C(c2ccccc2)(c2ccncc2)n2ccnc2)cc1C (stereo not drawn) [Example 5, 1-(3,4-dimethylphenyl-phenyl-4-pyridyl)-methyl-imidazole] | 10 | 1 | 0.5 |  |  |  |  | 1 (≈ 2.95 µM)
4 | Cc1cccc(C(c2ccccc2)(c2ccccn2)n2ccnc2)c1C (stereo not drawn) [Example 7, 1-(2,3-dimethylphenyl-phenyl-2-pyridyl)-methyl-imidazole] | 1 | 0.1 | 0.05 |  |  |  |  | 1 (≈ 2.95 µM)
5 | Cc1ccc(C(c2ccccc2)(c2ccccn2)n2ccnc2)cc1C (stereo not drawn) [Example 1, 1-(3,4-dimethylphenyl-phenyl-2-pyridyl)-methyl-imidazole] |  |  |  |  | 4 (≈ 11.8 µM) | < 1 | 0.5 (≈ 1.47 µM) | 1 (≈ 2.95 µM)
6 | Cc1ccc(C(c2ccccc2)(c2ccccn2)n2ccnc2)c(C)c1 (stereo not drawn) [Example 2, 1-(2,4-dimethylphenyl-phenyl-2-pyridyl)-methyl-imidazole] |  |  |  |  | 4 (≈ 11.8 µM) | 4 (≈ 11.8 µM) | 0.5 (≈ 1.47 µM) | 10 (≈ 29.5 µM)
7 | Cc1cccc(C(c2ccccc2)(c2ccncc2)n2ccnc2)c1C (stereo not drawn) [Example 9, 1-(2,3-dimethylphenyl-phenyl-4-pyridyl)-methyl-imidazole] |  |  |  |  | 4 (≈ 11.8 µM) | 1 (≈ 2.95 µM) | 0.5 (≈ 1.47 µM) | 1 (≈ 2.95 µM)
8 | FC(F)(F)c1cccc(C(c2ccccc2)(c2ccccn2)n2ccnc2)c1 (stereo not drawn) [Known Compound 2, 1-(3-trifluoromethylphenyl-phenyl-2-pyridyl)-methylimidazole, reference compound] | > 2 | > 2 | > 2 |  | < 4 | < 4 | < 4 | 4 (≈ 10.5 µM)
9 | Fc1ccc(C(c2ccccc2)(c2ccccn2)n2ccnc2)cc1 (stereo not drawn) [Known Compound 1, 1-(4-fluorophenyl-phenyl-2-pyridyl)-methylimidazole, reference compound] | > 2 | 2 | > 2 |  | < 4 | 4 (≈ 12.1 µM) | < 4 | 4 (≈ 12.1 µM)
10 | Cc1ccc(C)c(C(c2ccccc2)(c2ccncc2)n2ccnc2)c1 (stereo not drawn) [Example 6, 1-(2,5-dimethylphenyl-phenyl-4-pyridyl)-methyl-imidazole] |  |  |  |  | 40 (≈ 118 µM) | 40 (≈ 118 µM) | 0.5 (≈ 1.47 µM) | 4 (≈ 11.8 µM)
11 | Cc1cccc(C)c1C(c1ccccc1)(c1ccccn1)n1ccnc1 (stereo not drawn) [Example 3, 1-(2,6-dimethylphenyl-phenyl-2-pyridyl)-methyl-imidazole hydrochloride] |  |  |  |  | 10 | 4 | 0.5 | 1
12 | Cc1cccc(C(c2ccccc2)(c2ccccn2)n2ccnc2)c1C (stereo not drawn) [Example 8, 1-(2,3-dimethylphenyl-phenyl-2-pyridyl)-methyl-imidazole 1,5-naphthalenedisulphonate] | 4 | 1 | 1 | 1 |  |  |  | 
